In data set [1] the test system is Mus musculus. Put plainly: Antiepileptic activity in MES-induced seizure male ICR mouse model assessed as protection against tonic hind limb extension at 2 mg/kg, ip measured after 30 mins relative to control. The following applies: 0.5 h. The data set is classed as functional.
Data set [2] concerns the target Sodium channel protein type 8 subunit alpha (Homo sapiens) (UniProt Q9UQD0). Put plainly: Inhibition of human Nav1.6 expressed in CHO cells assessed as test to control ratio at 0.1 uM by whole cell voltage clamp electrophysiological analysis. It counts as cell-based.
Data set [3] can be described thus: Ratio of drug concentration in male ICR mouse brain to plasma at 10 mg/kg, ip measured after 0.25 hrs by LC-MS/MS analysis. It counts as ADME, organism-based. The following applies: read-out: BPR.
Data set [4] can be described thus: Drug concentration in male ICR mouse brain at 20 mg/kg, po measured after 0.25 hrs by LC-MS/MS analysis. The data set is classed as ADME, organism-based. The following applies: read-out: Ct.
Data set [5] concerns Mus musculus. Put plainly: Antiepileptic activity in 6 Hz(32 mA)-induced seizure male C57BL mouse model assessed as protection against seizure at 100 mg/kg, ip administered for 30 mins by epilepsy test. It counts as functional. The following applies: 0.5 h.
A short description of data set [6]: Ratio of drug concentration in male ICR mouse brain to plasma at 10 mg/kg, ip measured after 0.5 hrs by LC-MS/MS analysis. It counts as ADME, organism-based. To be noted: read-out: BPR.
Data set [7] can be described thus: Neurotoxicity in male ICR mouse assessed as motor impairment at 30 mg/kg, ip administered for 30 mins by rotarod test relative to control. It counts as toxicity, organism-based. To be noted: in vivo, 0.5 h. On the technique in general: Falling from the rotarod earlier than controls is read as motor impairment.
The target of data set [8] is Sodium channel protein type 8 subunit alpha (Homo sapiens) (UniProt Q9UQD0). As to the kind of experiment: Inhibition of human Nav1.6 expressed in CHO cells assessed as test to control ratio at 1 uM by whole cell voltage clamp electrophysiological analysis. It counts as cell-based.
Data set [9] can be described thus: Neurotoxicity in male ICR mouse assessed as motor impairment at 25 mg/kg, ip administered for 30 mins by rotarod test relative to control. It counts as toxicity, organism-based. To be noted: in vivo, 0.5 h.
In data set [10] the target is T1, Sodium channel protein type 2 subunit alpha (Homo sapiens, UniProt Q99250). Put plainly: Inhibition of human Nav1.2 expressed in HEK293 cells assessed as test to control ratio at 0.1 uM measured after 5 mins by whole cell voltage clamp electrophysiological analysis. The data set is classed as cell-based.
Target sequence in this assay (Q99250 whole entry, looked up): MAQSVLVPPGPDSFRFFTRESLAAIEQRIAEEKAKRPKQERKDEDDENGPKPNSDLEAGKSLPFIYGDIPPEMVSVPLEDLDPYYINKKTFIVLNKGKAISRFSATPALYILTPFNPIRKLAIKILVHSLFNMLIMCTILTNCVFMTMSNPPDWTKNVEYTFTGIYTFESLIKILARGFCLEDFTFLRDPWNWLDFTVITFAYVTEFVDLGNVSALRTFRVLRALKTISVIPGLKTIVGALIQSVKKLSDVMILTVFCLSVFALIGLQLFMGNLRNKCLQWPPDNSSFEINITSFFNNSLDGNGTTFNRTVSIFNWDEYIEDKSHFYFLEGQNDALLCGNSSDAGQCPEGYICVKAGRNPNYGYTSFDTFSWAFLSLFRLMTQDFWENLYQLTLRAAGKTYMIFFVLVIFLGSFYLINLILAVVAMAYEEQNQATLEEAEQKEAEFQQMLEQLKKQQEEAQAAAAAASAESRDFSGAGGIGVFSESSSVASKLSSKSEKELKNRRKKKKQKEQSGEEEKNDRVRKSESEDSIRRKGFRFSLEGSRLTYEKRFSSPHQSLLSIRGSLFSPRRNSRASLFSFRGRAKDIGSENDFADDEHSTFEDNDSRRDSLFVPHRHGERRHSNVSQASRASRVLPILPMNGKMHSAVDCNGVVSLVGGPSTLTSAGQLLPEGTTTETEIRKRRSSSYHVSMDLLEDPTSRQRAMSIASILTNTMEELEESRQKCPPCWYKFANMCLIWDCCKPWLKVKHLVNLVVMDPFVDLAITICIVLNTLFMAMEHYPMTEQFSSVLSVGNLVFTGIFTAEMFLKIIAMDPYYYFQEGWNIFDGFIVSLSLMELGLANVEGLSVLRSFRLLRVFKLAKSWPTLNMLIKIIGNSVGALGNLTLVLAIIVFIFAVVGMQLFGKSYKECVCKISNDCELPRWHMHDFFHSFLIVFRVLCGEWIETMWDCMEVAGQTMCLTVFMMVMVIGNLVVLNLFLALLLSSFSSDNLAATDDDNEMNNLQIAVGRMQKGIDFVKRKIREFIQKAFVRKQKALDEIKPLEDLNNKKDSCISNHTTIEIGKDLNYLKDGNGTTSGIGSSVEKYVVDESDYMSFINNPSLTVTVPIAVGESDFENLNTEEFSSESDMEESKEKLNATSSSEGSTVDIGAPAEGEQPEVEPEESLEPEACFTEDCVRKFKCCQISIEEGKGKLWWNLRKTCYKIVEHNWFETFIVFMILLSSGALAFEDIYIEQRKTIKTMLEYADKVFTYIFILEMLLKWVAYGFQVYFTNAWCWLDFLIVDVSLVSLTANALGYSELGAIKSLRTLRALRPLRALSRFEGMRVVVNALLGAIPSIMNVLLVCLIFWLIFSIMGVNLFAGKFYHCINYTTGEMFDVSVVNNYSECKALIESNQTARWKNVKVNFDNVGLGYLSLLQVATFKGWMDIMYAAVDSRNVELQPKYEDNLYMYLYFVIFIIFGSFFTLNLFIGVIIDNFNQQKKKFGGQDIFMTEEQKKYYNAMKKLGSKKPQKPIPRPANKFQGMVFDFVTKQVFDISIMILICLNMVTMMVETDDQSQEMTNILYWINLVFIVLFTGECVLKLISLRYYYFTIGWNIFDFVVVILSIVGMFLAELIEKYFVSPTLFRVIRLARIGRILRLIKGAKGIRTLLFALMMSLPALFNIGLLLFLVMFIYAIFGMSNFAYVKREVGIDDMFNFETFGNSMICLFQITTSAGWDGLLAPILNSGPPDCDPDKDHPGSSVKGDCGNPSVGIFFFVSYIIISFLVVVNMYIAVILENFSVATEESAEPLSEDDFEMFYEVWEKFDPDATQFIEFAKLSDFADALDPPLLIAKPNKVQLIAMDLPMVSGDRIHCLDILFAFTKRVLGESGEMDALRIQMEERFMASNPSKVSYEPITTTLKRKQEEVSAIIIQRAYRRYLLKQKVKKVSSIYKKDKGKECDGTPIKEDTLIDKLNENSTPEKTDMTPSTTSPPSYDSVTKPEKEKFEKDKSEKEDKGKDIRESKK
Data set [11] can be described thus: MRT (0 to infinity) in male ICR mouse at 1 mg/kg, iv measured after 24 hrs by LC-MS/MS analysis. The data set is classed as ADME, organism-based. To be noted: in vivo.
A short description of data set [12]: Tmax in male ICR mouse at 20 mg/kg, po measured after 24 hrs by LC-MS/MS analysis. The data set is classed as ADME, organism-based. The following applies: in vivo.
The nature of data set [13]: AUC (0 to infinity) in male ICR mouse at 1 mg/kg, iv measured after 24 hrs by LC-MS/MS analysis. It counts as ADME, organism-based. To be noted: in vivo.
Data set [14] concerns the target T1, Sodium channel protein type 2 subunit alpha. As to the kind of experiment: Inhibition of human Nav1.2 expressed in HEK293 cells at -40 mv holding potential measured after 5 mins by whole cell voltage clamp electrophysiological analysis. The data set is classed as cell-based.
Target sequence in this assay (Q99250 whole entry): as the sequence (Q99250 whole entry, looked up) above
Data set [15] can be described thus: Cmax in male ICR mouse at 20 mg/kg, po measured after 24 hrs by LC-MS/MS analysis. It counts as ADME, organism-based. To be noted: in vivo.
The nature of data set [16]: Ratio of drug concentration in male ICR mouse brain to plasma at 20 mg/kg, po measured after 0.5 hrs by LC-MS/MS analysis. The data set is classed as ADME, organism-based. To be noted: read-out: BPR.

From ChEMBL document CHEMBL5584296, “Discovery of Novel Pyrimidine-Based Derivatives as Nav1.2 Inhibitors with Efficacy in Mouse Models of Epilepsy” (J Med Chem, 2024) come the findings set out here.

Chain of Sodium channel protein type 8 subunit alpha (Homo sapiens) (Q9UQD0 whole entry, looked up): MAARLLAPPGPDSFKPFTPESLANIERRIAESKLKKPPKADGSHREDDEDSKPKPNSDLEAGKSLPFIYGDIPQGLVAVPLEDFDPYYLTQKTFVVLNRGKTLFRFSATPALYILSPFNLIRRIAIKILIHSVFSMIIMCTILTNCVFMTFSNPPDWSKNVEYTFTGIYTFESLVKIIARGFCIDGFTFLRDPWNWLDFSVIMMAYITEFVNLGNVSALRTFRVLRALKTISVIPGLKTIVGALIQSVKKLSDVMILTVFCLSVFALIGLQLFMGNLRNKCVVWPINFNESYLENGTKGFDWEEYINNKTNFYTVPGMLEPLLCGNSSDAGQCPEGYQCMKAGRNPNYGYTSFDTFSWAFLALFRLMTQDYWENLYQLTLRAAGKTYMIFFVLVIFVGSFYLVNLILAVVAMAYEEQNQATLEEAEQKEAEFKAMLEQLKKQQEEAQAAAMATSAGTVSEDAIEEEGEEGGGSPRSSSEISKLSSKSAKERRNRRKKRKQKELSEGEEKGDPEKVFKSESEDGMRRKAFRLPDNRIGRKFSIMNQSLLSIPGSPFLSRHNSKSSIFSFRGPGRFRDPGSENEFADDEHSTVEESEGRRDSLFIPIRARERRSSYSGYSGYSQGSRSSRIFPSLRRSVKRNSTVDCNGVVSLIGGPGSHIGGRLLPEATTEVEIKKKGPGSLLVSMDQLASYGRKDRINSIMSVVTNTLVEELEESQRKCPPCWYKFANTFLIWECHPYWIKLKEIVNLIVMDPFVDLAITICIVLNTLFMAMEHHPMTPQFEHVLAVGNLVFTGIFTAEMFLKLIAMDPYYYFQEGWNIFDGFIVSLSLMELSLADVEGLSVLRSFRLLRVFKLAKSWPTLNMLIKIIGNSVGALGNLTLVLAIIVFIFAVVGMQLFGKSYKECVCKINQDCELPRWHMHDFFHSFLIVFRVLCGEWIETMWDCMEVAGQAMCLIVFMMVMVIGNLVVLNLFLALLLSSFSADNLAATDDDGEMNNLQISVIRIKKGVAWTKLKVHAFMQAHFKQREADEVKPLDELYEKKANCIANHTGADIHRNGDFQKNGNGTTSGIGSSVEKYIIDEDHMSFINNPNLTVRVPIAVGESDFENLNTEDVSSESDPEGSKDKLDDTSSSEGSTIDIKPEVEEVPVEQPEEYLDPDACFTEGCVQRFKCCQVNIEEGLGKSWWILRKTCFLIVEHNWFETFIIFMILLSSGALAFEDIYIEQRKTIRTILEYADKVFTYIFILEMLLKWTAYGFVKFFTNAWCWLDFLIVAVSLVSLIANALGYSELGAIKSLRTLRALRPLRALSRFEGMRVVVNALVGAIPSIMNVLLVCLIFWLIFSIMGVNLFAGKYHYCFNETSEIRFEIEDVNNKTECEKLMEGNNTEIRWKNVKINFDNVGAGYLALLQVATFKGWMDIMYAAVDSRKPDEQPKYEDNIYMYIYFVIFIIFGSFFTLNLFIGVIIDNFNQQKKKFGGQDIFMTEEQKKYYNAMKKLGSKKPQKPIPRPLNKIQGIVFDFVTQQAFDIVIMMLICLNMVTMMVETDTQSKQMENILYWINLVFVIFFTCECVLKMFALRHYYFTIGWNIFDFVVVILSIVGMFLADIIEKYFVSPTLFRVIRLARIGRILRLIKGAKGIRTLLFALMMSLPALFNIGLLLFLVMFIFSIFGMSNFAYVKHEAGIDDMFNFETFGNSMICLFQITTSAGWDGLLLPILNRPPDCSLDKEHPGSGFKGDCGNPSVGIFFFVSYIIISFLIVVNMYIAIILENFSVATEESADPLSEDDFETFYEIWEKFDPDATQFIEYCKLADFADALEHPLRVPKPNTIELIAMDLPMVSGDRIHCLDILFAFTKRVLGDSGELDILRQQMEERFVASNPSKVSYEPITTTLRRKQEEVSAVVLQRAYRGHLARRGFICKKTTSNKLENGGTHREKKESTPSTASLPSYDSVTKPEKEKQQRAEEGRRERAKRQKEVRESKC

Take `COc1cccc(-c2cc(N3CCCc4ccccc4C3)nc(N)n2)c1`: the Activity came out at 25% in [1], 25% in data set [5], 88% in [7] and 18% in data set [9]. The T/C is 0.53 in [2], 0.06 in data set [8] and 0.6 in data set [10]. Moreover, the Kp at 0.25 h in [3] came to 3.1. The concentration at 0.25 h in [4] was 646 ng/g. The results for the Kp at 0.5 h in data set [6] and in data set [16] were 3.6 and 3.2, respectively. In data set [11], this compound registered an MRT inf of 33.6 min. Moreover, the Tmax in data set [12] came out at 15 min. The AUC(0-inf) in [13] was determined as 184 ng·h/mL. This compound also displayed a half-maximal inhibitory concentration (IC50) in [14] of 120 nM. For the same compound, in data set [15], the peak level (Cmax) was 63.4 ng/mL.

A word on the MRT inf: it is the average time that molecules of a dose stay in the body. What is called Tmax is the time at which the peak concentration occurs. As a reminder, the AUC(0-inf) is the area under the concentration-time curve extrapolated to infinity. A word on the IC50: it is the concentration that inhibits the measured activity by half. High values mean weaker potency in that assay, low ones greater potency in that assay. Broadly, the Cmax is the maximum level reached in the sampled fluid or tissue.
